# Test results as given in patent US20090239841A1, “Diaryl Ureas as CB1 Antagonists” (priority 2004, published 2009).
# pIC50: −log10 of the molar value.
# Target: T1, hCB1 (Homo sapiens, UniProt P21554)
# T1 construct: made in house; host or cells: Sf9 insect cells (baculovirus), P2 membranes
# Assay: Agonist-induced GTP binding (GTPγ35S) assay at CB1, Example 8
# Assay type: biochemical
# Conditions: IC50 at CB1, determined as described in Example 8; read-out: IC50
# Summary of the method: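 Antagonism read as inhibition of 1 nM CP55,940-stimulated GTPγ35S ([…]) binding, compounds at 10^−10 to 10^−5 M. Baculovirus-infected Sf9 membranes bearing hCB1 plus G-protein subunits, 60 min room-temperature incubation with 5 μM GDP. Filtration and scintillation counting; data as percent over basal.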
# T1 sequence (P21554 whole entry): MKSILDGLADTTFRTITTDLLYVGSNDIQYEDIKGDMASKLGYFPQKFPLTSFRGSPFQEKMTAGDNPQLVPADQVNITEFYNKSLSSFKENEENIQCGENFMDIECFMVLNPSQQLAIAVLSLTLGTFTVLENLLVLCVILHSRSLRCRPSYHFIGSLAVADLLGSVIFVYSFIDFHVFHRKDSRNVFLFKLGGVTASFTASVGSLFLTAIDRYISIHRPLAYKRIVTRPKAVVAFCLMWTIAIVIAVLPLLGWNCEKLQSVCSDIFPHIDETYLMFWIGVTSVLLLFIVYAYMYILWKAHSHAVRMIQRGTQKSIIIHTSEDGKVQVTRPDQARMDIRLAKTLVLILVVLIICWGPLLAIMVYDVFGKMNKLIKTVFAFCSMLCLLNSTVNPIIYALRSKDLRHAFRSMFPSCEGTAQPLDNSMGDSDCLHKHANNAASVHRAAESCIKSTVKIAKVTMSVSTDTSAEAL
row,SMILES,pIC50
1,"CCOC(=O)c1ccc(NC(=O)Nc2ccc(C)cc2)cc1 [Compound 474, ethyl 4-({[(4-methylphenyl)amino]carbonyl}amino)benzoate]",> 5.70
2,"CC(=O)c1cccc(NC(=O)Nc2cccc(OC(C)C)c2)c1 [Compound 419, 1-(3-acetylphenyl)-3-(3-isopropoxyphenyl)urea]",> 5.70
3,"Cc1ccc(NC(=O)Nc2cccc(C#N)c2)cc1F [Compound 448, 1-(3-cyanophenyl)-3-(3-fluoro-4-methylphenyl)urea]",> 5.70
4,"CC(=O)c1ccc(NC(=O)Nc2ccc(F)c(F)c2)cc1 [Compound 452, 1-(4-acetylphenyl)-3-(3,4-difluorophenyl)urea]",> 5.70
5,"CC(=O)c1ccc(NC(=O)Nc2ccc(OCC#N)cc2)cc1 [Compound 508, 1-(4-acetylphenyl)-3-[4-(cyanomethoxy)phenyl]urea]",> 5.70
6,"COc1ccc(NC(=O)Nc2ccc([N+](=O)[O-])cc2)cc1 [Compound 557, 1-(4-methoxyphenyl)-3-(4-nitrophenyl)urea]",> 5.70
7,"CCOC(=O)c1cccc(NC(=O)Nc2ccc(F)cc2)c1 [Compound 644, ethyl 3-({[(4-fluorophenyl)amino]carbonyl}amino)benzoate]",> 5.70
8,"COC(=O)c1ccc(NC(=O)Nc2cccc(OCCO)c2)cc1 [Compound 755, methyl 4-[({[3-(2-hydroxyethoxy)phenyl]amino}carbonyl)amino] benzoate]",> 5.70
9,"CCCc1ccc(NC(=O)Nc2ccc(F)cc2)cc1 [Compound 328, 1-(4-fluorophenyl)-3-(4-propylphenyl)urea]",> 5.70
10,"O=C(Nc1ccc(OC(F)F)cc1)Nc1cccc([N+](=O)[O-])c1 [Compound 568, 1-[4-(difluoromethoxy)phenyl]-3-(3-nitrophenyl)urea]",> 5.70
11,"CCOc1ccc(NC(=O)Nc2ccc(Cl)cc2)cc1 [Compound 390, 1-(4-chlorophenyl)-3-(4-ethoxyphenyl)urea]",> 5.70
12,"CCCc1ccc(NC(=O)Nc2cccc(OC)c2)cc1 [Compound 524, 1-(3-methoxyphenyl)-3-(4-propylphenyl)urea]",> 5.70
13,"CCCOc1ccc(NC(=O)Nc2cccc(CC)c2)cc1 [Compound 396, 1-(3-ethylphenyl)-3-(4-propoxyphenyl)urea]",> 5.70
14,"CCOC(=O)c1ccc(NC(=O)Nc2ccc(CC)cc2)cc1 [Compound 498, ethyl 4-({[(4-ethylphenyl)amino]carbonyl}amino)benzoate]",> 5.70
15,"N#CCOc1ccc(NC(=O)Nc2cccc(F)c2)cc1 [Compound 466, 1-[4-(cyanomethoxy)phenyl]-3-(3-fluorophenyl)urea]",> 5.70
16,"CCOc1ccc(NC(=O)Nc2ccc(OC(F)(F)F)cc2)cc1 [Compound 532, 1-(4-ethoxyphenyl)-3-[4-(trifluoromethoxy)phenyl]urea]",> 5.70
17,"COCc1ccc(NC(=O)Nc2ccc(C)c(F)c2)cc1 [Compound 685, 1-(3-fluoro-4-methylphenyl)-3-[4-(methoxymethyl)phenyl]urea]",> 5.70
18,"O=C(Nc1ccc(OC(F)F)cc1)Nc1cnccn1 [Compound 627, 1-[4-(difluoromethoxy)phenyl]-3-pyrazin-2-ylurea]",> 5.70

row,SMILES,pIC50
1,"O=C(Nc1ccc(OC(F)F)cc1)Nc1ccccc1Br [Compound 605, 1-(2-bromophenyl)-3-[4-(difluoromethoxy)phenyl]urea]",> 5.70
2,"CCOC(=O)c1ccc(NC(=O)Nc2ccc(OC)cc2)cc1 [Compound 594, ethyl 4-({[(4-methoxyphenyl)amino]carbonyl}amino)benzoate]",> 5.70
3,"CC(=O)c1cccc(NC(=O)Nc2ccc(CC#N)cc2)c1 [Compound 504, 1-(3-acetylphenyl)-3-[4-(cyanomethyl)phenyl]urea]",> 5.70
4,"CCOC(=O)c1ccc(NC(=O)Nc2ccc(COC)cc2)cc1 [Compound 670, ethyl 4-[({[4-(methymethyl)phenyl]amino}carbonyl)amino]benzoate]",> 5.70
5,"COc1cccc(NC(=O)Nc2ccc([N+](=O)[O-])cc2)c1 [Compound 556, 1-(3-methoxyphenyl)-3-(4-nitrophenyl)urea]",> 5.70
6,"CCOc1ccc(NC(=O)Nc2ccc(C)c(F)c2)cc1 [Compound 616, 1-(4-ethoxyphenyl)-3-(3-fluoro-4-methylphenyl)urea]",> 5.70
7,"COC(=O)c1ccc(NC(=O)Nc2ccc(C)cc2)cc1 [Compound 470, methyl 4-({[(4-methylphenyl)amino]carbonyl}amino)benzoate]",> 5.70
8,"Cc1ccc(F)cc1NC(=O)Nc1cccc(OC(F)F)c1 [Compound 700, 1-[3-(difluoromethoxy)phenyl]-3-(5-fluoro-2-methylphenyl)urea]",> 5.70
9,"CCOc1ccc(NC(=O)Nc2ccc(C#N)cc2)cc1 [Compound 411, 1-(4-cyanophenyl)-3-(4-ethoxyphenyl)urea]",> 5.70
10,"CCCc1ccc(NC(=O)Nc2cccc(C(=O)OCC)c2)cc1 [Compound 652, ethyl 3-({[(4-propylphenyl)amino]carbonyl}amino)benzoate]",> 5.70
11,"CCc1ccc(NC(=O)Nc2ccc(C(=O)OC)cc2)cc1 [Compound 495, methyl 4-({[(4-ethylphenyl)amino]carbonyl}amino)benzoate]",> 5.70
12,"COC(=O)c1ccc(NC(=O)Nc2cccc(F)c2)cc1 [Compound 471, methyl 4-({[(3-fluorophenyl)amino]carbonyl}amino)benzoate]",> 5.70
13,"CC(C)Oc1ccc(NC(=O)Nc2ccc(F)cc2)cc1 [Compound 368, 1-(4-fluorophenyl)-3-(4-isopropoxyphenyl)urea]",> 5.70
14,"CC(C)Oc1ccc(NC(=O)Nc2ccc(Cl)cc2)cc1 [Compound 405, 1-(4-chlorophenyl)-3-(4-isopropoxyphenyl)urea]",> 5.70
15,"CCOC(=O)c1cccc(NC(=O)Nc2ccc(OC(C)C)cc2)c1 [Compound 674, ethyl 3-({[(4-isopropoxyphenyl)amino]carbonyl}amino)benzoate]",> 5.70
16,"Cc1ccc(NC(=O)Nc2ccc([N+](=O)[O-])cc2)cc1 [Compound 463, 1-(4-methylphenyl)-3-(4-nitrophenyl)urea]",> 5.70
17,"CCOC(=O)c1ccc(NC(=O)Nc2ccc(OCC)cc2)cc1 [Compound 595, ethyl 4-({[(4-ethoxyphenyl)amino]carbonyl}amino)benzoate]",> 5.70
18,"CCc1ccc(NC(=O)Nc2ccc(S(C)(=O)=O)cc2)cc1 [Compound 501, 1-(4-ethylphenyl)-3-[4-(methylsulfonyl)phenyl]urea]",> 5.70

# Same assay, conditions: Table I; IC50 at CB1, GTP binding with 1 nM CP55,940; read-out: IC50
row,SMILES,pIC50
1,"Cc1cccc(NC(=O)Nc2ccc(OC(F)F)cc2)c1 [Compound 18, N-[4-(difluoromethoxy)phenyl]-N′-(3-methylphenyl)urea]",> 5.70
2,"O=C(Nc1ccc(OC(F)F)cc1)Nc1ccc(OC(F)F)cc1 [Compound 4, N,N′-bis[4-(difluoromethoxy)phenyl]urea]",> 5.70
3,"CCc1ccc(NC(=O)Nc2ccc(C)cc2)cc1 [Compound 42, N-(4-ethylphenyl)-N′-(4-methylphenyl)urea]",> 5.70

# Same assay, conditions: Table II; IC50 at CB1, GTP binding with 1 nM CP55,940; read-out: IC50
row,SMILES,pIC50
1,"CCc1ccc(NC(=O)Nc2ccc(COC)cc2)cc1 [Compound 240, N-(4-ethylphenyl)-N′-[4-(methoxymethyl)phenyl]urea]",> 5.70
2,CC(C)Oc1cccc(NC(=O)Nc2ccc(Cl)cc2)c1 [Compound 248],> 5.70
3,"CC(C)Oc1ccc(NC(=O)Nc2ccc(Cl)cc2)cc1 [Compound 252, N-(4-chlorophenyl)-N′-(4-isopropoxyphenyl)urea]",> 5.70
4,"O=C(Nc1ccccc1)Nc1ccc(N2CCCCC2)cc1 [Compound 167, N-phenyl-N′-(4-piperidin-1-ylphenyl)urea]",> 5.70
5,"COc1ccc(-c2cccc(NC(=O)Nc3ccc(OC(F)F)cc3)c2)nc1Cl [Compound 123, N-[3-(6-chloro-5-methoxypyridin-2-yl)phenyl]-N′-[4-(difluoromethoxy)phenyl]urea]",> 5.70
6,Cc1ccc2cc(-c3cccc(NC(=O)Nc4ccc(OC(F)F)cc4)c3)ccc2n1 [Compound 70],> 5.70
7,"CCCc1ccc(NC(=O)Nc2cccc(Cl)c2)cc1 [Compound 184, N-(3-chlorophenyl)-N′-(4-propylphenyl)urea]",> 5.70
8,"COc1ccc(C(F)(F)F)c(-c2cccc(NC(=O)Nc3ccc(OC(F)F)cc3)c2)n1 [Compound 121, N-[4-(difluoromethoxy)phenyl]-N′-{3-[6-methoxy-3-(trifluoromethyl)pyridin-2-yl]phenyl}urea]",> 5.70
9,O=C(Nc1ccc(OC(F)F)cc1)Nc1cccc(-c2cocn2)c1 [Compound 138],> 5.70
10,"CCOc1ccc(NC(=O)Nc2cccc(C#N)c2)cc1 [Compound 265, N-(3-cyanophenyl)-N′-(4-ethoxyphenyl)urea]",> 5.70
11,"Cc1ccc(NC(=O)Nc2ccc(C)cc2)cc1 [Compound 171, N,N′-bis(4-methylphenyl)urea]",> 5.70
12,"O=C(Nc1ccc(Cl)cc1)Nc1cccc(OC(F)F)c1 [Compound 256, N-(4-chlorophenyl)-N′-[3-(difluoromethoxy)phenyl]urea]",> 5.70
13,"CC(C)c1ccc(NC(=O)Nc2cccc(C#N)c2)cc1 [Compound 194, N-(3-cyanophenyl)-N′-(4-isopropylphenyl)urea]",> 5.70
14,"CCCOc1ccc(NC(=O)Nc2cccc(C#N)c2)cc1 [Compound 273, N-(3-cyanophenyl)-N′-(4-propoxyphenyl)urea]",> 5.70
15,"COCc1ccc(NC(=O)Nc2ccc(Cl)cc2)cc1 [Compound 242, N-(4-chlorophenyl)-N′-[4-(methoxymethyl)phenyl]urea]",> 5.70
16,"O=C(Nc1ccc(OC(F)F)cc1)Nc1ccc2c(c1)C(=O)CC2 [Compound 83, N-[4-(difluoromethoxy)phenyl]-N′-(3-oxo-2,3-dihydro-1H-inden-5-yl)urea]",> 5.70
